This experiment deals with Cholesterin-Biosynthese. Briefly: Inhibition of cholesterol biosynthesis in cell culture by 14C-precursor (14C sodium acetate) incorporation into cholesterol. It counts as cell-based. The note with it: HEP-G2-Zellen, 1 % DMSO. From the text:
Prüfung auf Cholesterin-Biosynthese-Hemmung In Zellkulturen durch ^14C-Präkursoreinbau In Cholesterin.
Monolayers von HEP G2-Zellen in lipoproteinfreiem Nährmedium wurden mit entsprechenden Konzentrationen der Prüfsubstanzen 1 Stunde vorinkubiert; nach Zugabe des ^14C-markierten Präkursors '^4C-Natriumacetat wurde die Inkubation für 3 Stunden fortgesetzt. Danach wurde ein Teil der Zellen bei vorheriger Zugabe eines internen Standards von ^3H-Cholesterin alkalisch verseift. Die Lipide der verseiften Zellen wurden mit Chloroform-Methanol extrahiert. Dieses Lipidgemisch wurde nach Zusatz von Träger-Cholesterin präparativ dünnschichtchromatographisch getrennt, die Cholesterin-Bande nach dem Sichtbarmachen mit Jod-Dämpfen isoliert und die aus dem ^14C-Präkursor gebildete Menge ^14C-Cholesterins szintigraphisch bestimmt. In einem aliquoten Teil der Zellen wurde Zellprotein bestimmt, sodaß die in der Zeiteinheit/mg Zellprotein aus ^14C-Präkursor gebildete Menge ^14C-Cholesterins berechnet werden kann. Zum Vergleich für die Hemmwirkung eines zugesetzten Prüfpräparates diente die Lösungsmittelkontrolle, sodaß direkt die Hemmung der Cholesterin-Biosynthese bei einer bestimmten molaren Konzentration des Prüfpräparates im Medium angegeben werden kann. In aliquoten Anteilen der Zellkultur wurde die Intaktheit der Zellkulturen und die fehlende Zellschädigung durch Präparate-Einwirkung morphologisch (Lichtmikroskop) beurteilt.
Cholesterol-Biosynthese-Hemmung Zellkultur: HEP-G2-Zellen Lösungsmittel-Endkonzentration: 1 % DMSO

The substance “3ß-Hydroxy-chola-5,23t-dien-24-carbonsäure-methylester [Beispiel 9]” displayed an IC50 (Cholesterol-Biosynthese-Hemmung) of about 500 nM. Also, the “Acetateinbau in Cholesterin im Vergleich zur Kontrolle” value is on record as 52% (Präparat-Konzentration 1,0 x 10^-6 Mol/1, 1 µM); 56% (Präparat-Konzentration 1,0 x 10^-7 Mol/1, 0.1 µM); 6% (Präparat-Konzentration 2,5 x 10^-4 Mol/1, 250 µM); 17% (Präparat-Konzentration 2,5 x 10^-5 Mol/1, 25 µM).

In general, IC50 refers to the concentration at which inhibition is half-maximal.

Source of the values: patent EP0346759A2, “Cholestadiene derivatives, process for their preparation, and their use as medicines with a HMG-CoA reductase-inhibiting activity” (HOECHST AKTIENGESELLSCHAFT, priority 1988, dated 1989).
